From patent US8536201B2, “Pesticidal arylpyrrolidines” (Bayer Intellectual Property GmbH, priority 2009, dated 2013)

Legend:
Assay type in all cases: in vivo
Spodoptera litura [1] = experiment: Tobacco cutworm (Spodoptera litura) larvae, sweet potato leaf dip test; settings: 20 ppm; third instar larvae, treated sweet potato leaves, after 7 days
Description: Unless not mentioned otherwise, the test solutions were prepared as follows:
Solvent: dimethyl formamide, 3 parts by weight
Emulsifier: polyoxyethylene alkyl phenyl ether, 1 part by weight
To prepare the test solution, 1 part by weight of an active compound is mixed with the above-mentioned amount of solvent containing the above-mentioned amount of emulsifier, and the mixture is diluted with water to the desired concentration.
BIOLOGICAL TEST EXAMPLE 1.1
Tobacco Cutworm (Spodoptera litura) Larvae
Leaves of sweet potato were immersed in the test solution at the appropriate concentration, and the leaves were dried in air. The leaves were then placed in a petri dish having a diameter of 9 cm, and ten Spodoptera litura at third instar larvae were released therein. The petri dishes were placed in a temperature-controlled chamber at 25° C. After 2 days and 4 days more sweet potato leaves were added. After 7 days, the number of dead larvae was counted to calculate the insecticidal activity. An insecticidal activity of 100% means that all larvae were killed, whereas an insecticidal activity of 0% means that no larva was killed. In the current test, the results of two petri dishes for each treatment were averaged.

Spodoptera litura [2] = experiment: Tobacco cutworm (Spodoptera litura) larvae using artificial diet; settings: 20 ppm, 3rd-instar larvae
Description: BIOLOGICAL TEST EXAMPLE 1.2
Tobacco Cutworm (Spodoptera litura) Larvae Using Artificial Diet
2.3 g of artificial diet powder is put into a PET cup (7.5 cm diameter, 4 cm depth). The powder was leveled to make a layer in the bottom of the cup. 5 ml of a chemical solution is poured onto the powder and spread uniformly. The cup with treated diet powder is placed quiet to let the diet jell. Into each testing cup five 3rd-instar larvae were released. The testing cup is closed with the lid and placed in a temperature-controlled room at 25° C. and 50-60% R.H., 16L8D lighting conditions.
The mortality in % was determined according to the following criteria:
1 larva dead: 20% Efficacy
5 larvae dead: 100% Efficacy

Tetranychus urticae = experiment: Two-spotted spider mite Tetranychus urticae spray test on kidney bean; settings: adult mites, after 7 days
Description: BIOLOGICAL TEST EXAMPLE 2
Two-Spotted Spider Mite Tetranychus urticae
50 to 100 adult mites of Tetranychus urticae were inoculated to leaves of kidney bean at two-leaf stage planted in a pot of 6 cm in diameter. After one day, test solution at the appropriate concentration was sprayed thereon in a sufficient amount using a spray gun. After the spraying, the plant pot was placed inside a greenhouse, and after 7 days, the acaricidal activity was calculated. An acaricidal activity of 100% means that all mites were killed, an acaricidal activity of 0% means that no mite was killed.

Aulacophora femoralis = experiment: Cucurbit leaf beetle (Aulacophora femoralis) cucumber leaf dip test; settings: second instar larvae, treated cucumber leaves, after 7 days
Description: BIOLOGICAL TEST EXAMPLE 3
Cucurbit Leaf Beetle (Aulacophora femoralis)
Leaves of cucumber were immersed in the test solution at the appropriate concentration, and the leaves were dried in air. The leaves were then put in a plastic cup containing sterilized black soil and five Aulacophora femoralis at second instar larvae were released in the cup. The cups were placed in a temperature-controlled chamber at 25° C. After 7 days, the number of dead larvae was counted, and thus the insecticidal activity was calculated. An insecticidal activity of 100% means that all larvae were killed, whereas an insecticidal activity of 0% means that no larva was killed.

Ctenocephalides felis = Ctenocephalides felis test (CTECFE), blood feeding; settings: 100 ppm in cattle blood; adult unfed fleas, after 2 days
Description: BIOLOGICAL TEST EXAMPLE 7
Ctenocephalides felis—Test (CTECFE)
Solvent: Dimethyl Sulfoxide
To produce a suitable preparation of active compound, 10 mg of active compound are dissolved in 0.5 ml solvent, and the concentrate is diluted with cattle blood to the desired concentration. Approximately 20 adult unfed (Ctenocephalides felis) are placed in flea chambers. The blood chamber, sealed with parafilm on the bottom, are filled with cattle blood supplied with compound solution and placed on top of the flea chamber, so that the fleas are able to suck the blood. The blood chamber is heated to 37° C. whereas the flea chamber is kept at room temperature.
After 2 days mortality in % is determined. 100% means that all the fleas have been killed; 0% means that none of the fleas have been killed.

Row | SMILES | insecticidal activity (Spodoptera litura [1]) [%] | insecticidal activity (Spodoptera litura [2]) [%] | insecticidal activity (Tetranychus urticae; 20 ppm) [%] | insecticidal activity (Aulacophora femoralis; 20 ppm) [%] | activity (mortality in %) (Ctenocephalides felis) [%] | insecticidal activity (Aulacophora femoralis; 100 ppm) [%] | insecticidal activity (Tetranychus urticae; 100 ppm) [%]
1 | CCC(=O)N[C@@H](C)c1ccc(N2CCC(c3cc(Cl)cc(C(F)(F)F)c3)(C(F)(F)F)C2)cc1 (stereo partly shown) [Compound 4-b] | 100 | 100 | 100 | 100 | – | – | –
2 | CC(NC(=O)CC1CC1)c1ccc(N2CCC(c3cc(Cl)c(Cl)c(Cl)c3)(C(F)(F)F)C2)cc1 (racemic) [Compound 12] | – | 100 | 100 | – | 95 | – | –
3 | COCCC(=O)NC(C)c1ccc(N2CCC(c3cc(Cl)c(Cl)c(Cl)c3)(C(F)(F)F)C2)cc1 (racemic) [Compound 14] | – | 100 | 100 | – | 90 | 100 | –
4 | CC(NC(=O)CC1CC1)c1ccc(N2CCC(c3cc(C(F)(F)F)cc(C(F)(F)F)c3)(C(F)(F)F)C2)cc1 (racemic) [Compound 13] | – | 100 | 100 | – | – | – | –
5 | CCC(=O)NC(C)c1ccc(N2CCC(c3cc(Cl)cc(C(F)(F)F)c3)(C(F)(F)F)C2)cc1 (racemic) [Compound 4] | 100 | 100 | 100 | 100 | – | – | –
6 | CCC(=O)N[C@@H](C)c1ccc(N2CCC(c3cc(Cl)cc(Cl)c3)(C(F)(F)F)C2)cc1 (stereo partly shown) [Compound 2-b] | 100 | 100 | – | 100 | – | – | –
7 | C[C@H](NC(=O)c1c(F)cc(F)cc1F)c1ccc(N2CCC(c3cc(C(F)(F)F)cc(C(F)(F)F)c3)(C(F)(F)F)C2)cc1 (stereo partly shown) [Compound 16-b] | – | 100 | 100 | 100 | – | – | –
8 | CC(NC(=O)C1CC1)c1ccc(N2CCC(c3cc(Cl)cc(C(F)(F)F)c3)(C(F)(F)F)C2)cc1 (racemic) [Compound 5] | 100 | 100 | 100 | 100 | – | – | –
9 | C[C@H](NC(=O)CC1CC1)c1ccc(N2CCC(c3cc(Cl)c(Cl)c(Cl)c3)(C(F)(F)F)C2)cc1 (stereo partly shown) [Compound 12-b] | – | 100 | 100 | – | – | 100 | –
10 | CC(=O)N[C@@H](C)c1ccc(N2CCC(c3cc(Cl)c(Cl)c(Cl)c3)(C(F)(F)F)C2)cc1 (stereo partly shown) [Compound 6-b] | 100 | 100 | 100 | – | – | – | –
11 | CC(=O)NC(C)c1ccc(N2CCC(c3cc(C(F)(F)F)cc(C(F)(F)F)c3)(C(F)(F)F)C2)cc1 (racemic) [Compound 9] | 100 | 100 | – | – | – | – | –
12 | CCC(=O)NC(C)c1ccc(N2CCC(c3cc(Cl)cc(Cl)c3)(C(F)(F)F)C2)cc1 (racemic) [Compound 2] | 100 | 100 | – | 100 | 95 | – | 100
13 | CC(=O)NC(C)c1ccc(N2CCC(c3cc(Cl)cc(Cl)c3)(C(F)(F)F)C2)cc1 (racemic) [Compound 1] | 100 | 100 | – | – | – | 100 | –
14 | CCC(=O)N[C@@H](C)c1ccc(N2CCC(c3cc(Cl)c(Cl)c(Cl)c3)(C(F)(F)F)C2)cc1 (stereo partly shown) [Compound 7-b] | 100 | 100 | 100 | 100 | – | – | –
15 | CCC(=O)NC(C)c1ccc(N2CCC(c3cc(Cl)c(Cl)c(Cl)c3)(C(F)(F)F)C2)cc1 (racemic) [Compound 7] | 100 | 100 | 100 | – | – | 100 | –
16 | CCC(=O)N[C@H](C)c1ccc(N2CCC(c3cc(C(F)(F)F)cc(C(F)(F)F)c3)(C(F)(F)F)C2)cc1 (stereo partly shown) [Compound 10-a] | – | – | – | 100 | 90 | – | –
17 | C[C@H](NC(=O)CC1CC1)c1ccc(N2CCC(c3cc(C(F)(F)F)cc(C(F)(F)F)c3)(C(F)(F)F)C2)cc1 (stereo partly shown) [Compound 13-b] | – | 100 | 100 | – | – | 100 | –
18 | CC(NC(=O)C1CC1)c1ccc(N2CCC(c3cc(C(F)(F)F)cc(C(F)(F)F)c3)(C(F)(F)F)C2)cc1 (racemic) [Compound 11] | 100 | 100 | 100 | 100 | – | – | –
19 | C[C@H](NC(=O)C1CC1)c1ccc(N2CCC(c3cc(Cl)cc(Cl)c3)(C(F)(F)F)C2)cc1 (stereo partly shown) [Compound 3-b] | 100 | 100 | 100 | 100 | – | – | –
20 | CC(=O)NC(C)c1ccc(N2CCC(c3cc(Cl)cc(Cl)c3)(C(F)(F)F)C2)cc1Cl (stereo not shown) [Compound 3-66, reference compound] | 20 | – | – | 50 | – | – | –
21 | COCCC(=O)N[C@@H](C)c1ccc(N2CCC(c3cc(Cl)c(Cl)c(Cl)c3)(C(F)(F)F)C2)cc1 (stereo partly shown) [Compound 14-b] | – | 100 | 100 | – | – | 100 | –
22 | C[C@H](NC(=O)C1CC1)c1ccc(N2CCC(c3cc(Cl)c(Cl)c(Cl)c3)(C(F)(F)F)C2)cc1 (stereo partly shown) [Compound 8-b] | 100 | 100 | 100 | 100 | 95 | – | –
23 | CC(=O)NC(C)c1ccc(N2CCC(c3cc(Cl)c(Cl)c(Cl)c3)(C(F)(F)F)C2)cc1 (racemic) [Compound 6] | 100 | 100 | 100 | – | – | – | –
24 | CC(=O)N[C@@H](C)c1ccc(N2CCC(c3cc(Cl)cc(Cl)c3)(C(F)(F)F)C2)cc1 (stereo partly shown) [Compound 1-b] | 100 | 100 | – | 100 | – | – | 100
25 | CCC(=O)N[C@@H](C)c1ccc(N2CCC(c3cc(C(F)(F)F)cc(C(F)(F)F)c3)(C(F)(F)F)C2)cc1 (stereo partly shown) [Compound 10-b] | 100 | 100 | 100 | 100 | – | – | –
26 | C[C@H](NC(=O)C1CC1)c1ccc(N2CCC(c3cc(C(F)(F)F)nc(C(F)(F)F)c3)(C(F)(F)F)C2)cc1 (stereo partly drawn) [Compound 17-b, N-[(1S)-1-(4-{3-[2,6-bis(trifluoromethyl)pyridin-4-yl]-3-(trifluoromethyl)pyrrolidin-1-yl}phenyl)ethyl]cyclopropanecarboxamide] | – | 100 | 100 | 100 | – | – | –
27 | C[C@H](NC(=O)C1CC1)c1ccc(N2CCC(c3cc(Cl)cc(C(F)(F)F)c3)(C(F)(F)F)C2)cc1 (stereo partly shown) [Compound 5-b] | 100 | 100 | 100 | 100 | – | – | –
28 | CCC(=O)N[C@H](C)c1ccc(N2CCC(c3cc(Cl)c(Cl)c(Cl)c3)(C(F)(F)F)C2)cc1 (stereo partly shown) [Compound 7-a] | – | – | – | – | 80 | 100 | –
